Data from patent US9802927B2, “Oxadiazine compounds and methods of use thereof” (Denali Therapeutics, Inc., priority 2015, dated 2017).

What follows are compounds tested on Aβ42 (assay: In vitro cell screening assay in H4 cells expressing human APP751: Aβ42 by sandwich ELISA). Settings: Homo sapiens, compounds 0.003-10 μM, incubated overnight (16-18 h), sandwich ELISA of supernatant.
Assay type: cell-based
Outline: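 H4 neuroglioma cells stably expressing wild-type human APP751, switched to Pro293 medium and treated with compounds (0.003-10 μM, 0.33% DMSO) for 16-18 h at 37 °C. Supernatant Aβ42 quantified by sandwich ELISA (C-terminal capture, 4G8-HRP detection, A450); EC50 by sigmoidal fit normalized to DMSO and DAPT controls.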

EC50	SMILES
> 3000 nM	COc1nc(C2=NOCC(c3oc(C)nc3C)N2)ccc1-n1cnc(C)c1 (single isomer, unassigned; (-)) [Example 161A, (−)-5-(2,4-dimethyloxazol-5-yl)-3-(6-methoxy-5-(4-methyl-1H-imidazol-1-yl)pyridin-2-yl)-5,6-dihydro-4H-1,2,4-oxadiazine]
> 3000 nM	COc1nc(C2=NOCC(c3cnn(C)c3)N2)ccc1-n1cnc(C)c1 (single isomer, unassigned; (-)) [Example 166A, (−)-3-(6-methoxy-5-(4-methyl-1H-imidazol-1-yl)pyridin-2-yl)-5-(1-methyl-1H-pyrazol-4-yl)-5,6-dihydro-4H-1,2,4-oxadiazine]

Same assay, conditions: compounds 0.003-10 μM, incubated overnight (16-18 h), sandwich ELISA of supernatant

EC50	SMILES
> 3000 nM	COc1nc(C2=NOCC(c3ccc(C#N)cc3)N2)ccc1-n1cnc(C)c1 (single isomer, unassigned; (-)) [Example 151A, (−)-4-(3-(6-methoxy-5-(4-methyl-1H-imidazol-1-yl)pyridin-2-yl)-5,6-dihydro-4H-1,2,4-oxadiazin-5-yl) benzonitrile]
199 nM	COc1nc(C2=NOCC(CC(C)C)N2)ccc1-n1cnc(C)c1 (single isomer, unassigned; (-)) [Example 154B, (−)-5-isobutyl-3-(6-methoxy-5-(4-methyl-1H-imidazol-1-yl)pyridin-2-yl)-5,6-dihydro-4H-1,2,4-oxadiazine]
> 3000 nM	COc1nc(C2=NOCC(c3cscn3)N2)ccc1-n1cnc(C)c1 (single isomer, unassigned; (-)) [Example 156B, (−)-3-(6-methoxy-5-(4-methyl-1H-imidazol-1-yl)pyridin-2-yl)-5-(thiazol-4-yl)-5,6-dihydro-4H-1,2,4-oxadiazine]
368 nM	COc1nc(C2=NOCC(C3CCC3)N2)ccc1-n1cnc(C)c1 (single isomer, unassigned; (-)) [Example 163B, (−)-5-cyclobutyl-3-(6-methoxy-5-(4-methyl-1H-imidazol-1-yl)pyridin-2-yl)-5,6-dihydro-4H-1,2,4-oxadiazine]
> 3000 nM	COc1nc(C2=NOCC(c3ccccn3)N2)ccc1-n1cnc(C)c1 (single isomer, unassigned; (-)) [Example 168B, (−)-3-(6-methoxy-5-(4-methyl-1H-imidazol-1-yl)pyridin-2-yl)-5-(pyridin-2-yl)-5,6-dihydro-4H-1,2,4-oxadiazine]
107 nM	COc1nc(C2=NOCC(C3CCCC3)N2)ccc1-n1cnc(C)c1 (single isomer, unassigned; (-)) [Example 171B, (−)-5-cyclopentyl-3-(6-methoxy-5-(4-methyl-1H-imidazol-1-yl)pyridin-2-yl)-5,6-dihydro-4H-1,2,4-oxadiazine]
> 3000 nM	COc1nc(C2=NOCC(C3CCS(=O)(=O)CC3)N2)ccc1-n1cnc(C)c1 (single isomer, unassigned; (-)) [Example 177B, (−)-4-(3-(6-methoxy-5-(4-methyl-1H-imidazol-1-yl)pyridin-2-yl)-5,6-dihydro-4H-1,2,4-oxadiazin-5-yl) tetrahydro-2H-thiopyran 1,1-dioxide]
> 3000 nM	COc1nc(C2=NOCC(C3CC(F)(F)C3)N2)ccc1-n1cnc(C)c1 (single isomer, unassigned; (-)) [Example 180A, (−)-5-(3,3-difluorocyclobutyl)-3-(6-methoxy-5-(4-methyl-1H-imidazol-1-yl)pyridin-2-yl)-5,6-dihydro-4H-1,2,4-oxadiazine]
1760 nM	COc1nc(C2=NOCC(c3ccc4ncsc4c3)N2)ccc1-n1cnc(C)c1 (single isomer, unassigned; (-)) [Example 183A, (−)-5-(benzo [d]thiazol-6-yl)-3-(6-methoxy-5-(4-methyl-1H-imidazol-1-yl)pyridin-2-yl)-5,6-dihydro-4H-1,2,4-oxadiazine]
1170 nM	COc1nc(C2=NOCC(c3cc4ccccc4o3)N2)ccc1-n1cnc(C)c1 (single isomer, unassigned; (-)) [Example 186A, (−)-5-(benzofuran-2-yl)-3-(6-methoxy-5-(4-methyl-1H-imidazol-1-yl)pyridin-2-yl)-5,6-dihydro-4H-1,2,4-oxadiazine]
252 nM	COc1nc(C2=NOCC(c3cn(C)c4ccccc34)N2)ccc1-n1cnc(C)c1 (single isomer, unassigned; (-)) [Example 189B, (−)-3-(6-methoxy-5-(4-methyl-1H-imidazol-1-yl)pyridin-2-yl)-5-(1-methyl-1H-indol-3-yl)-5,6-dihydro-4H-1,2,4-oxadiazine]
287 nM	COc1nc(C2=NOCC(c3cn(C)c4ccc(F)cc34)N2)ccc1-n1cnc(C)c1 (single isomer, unassigned; (-)) [Example 190A, (−)-5-(5-fluoro-1-methyl-1H-indol-3-yl)-3-(6-methoxy-5-(4-methyl-1H-imidazol-1-yl)pyridin-2-yl)-5,6-dihydro-4H-1,2,4-oxadiazine]
83.2 nM	COc1nc(C2=NOCC(c3cn(C)c4cccc(F)c34)N2)ccc1-n1cnc(C)c1 (single isomer, unassigned; (-)) [Example 191B, (−)-5-(4-fluoro-1-methyl-1H-indol-3-yl)-3-(6-methoxy-5-(4-methyl-1H-imidazol-1-yl)pyridin-2-yl)-5,6-dihydro-4H-1,2,4-oxadiazine]
170 nM	COc1nc(C2=NOCC(c3cn(C)c4cc(F)ccc34)N2)ccc1-n1cnc(C)c1 (single isomer, unassigned; (-)) [Example 192A, (−)-5-(6-fluoro-1-methyl-1H-indol-3-yl)-3-(6-methoxy-5-(4-methyl-1H-imidazol-1-yl)pyridin-2-yl)-5,6-dihydro-4H-1,2,4-oxadiazine]
71 nM	COc1nc(C2=NOCC(c3cn(C)c4ccc(Cl)cc34)N2)ccc1-n1cnc(C)c1 (single isomer, unassigned; (-)) [Example 193A, (−)-5-(5-chloro-1-methyl-1H-indol-3-yl)-3-(6-methoxy-5-(4-methyl-1H-imidazol-1-yl)pyridin-2-yl)-5,6-dihydro-4H-1,2,4-oxadiazine]
147 nM	COc1nc(C2=NOCC(c3cn(C)c4cc(Cl)ccc34)N2)ccc1-n1cnc(C)c1 (single isomer, unassigned; (-)) [Example 194B, (−)-5-(6-chloro-1-methyl-1H-indol-3-yl)-3-(6-methoxy-5-(4-methyl-1H-imidazol-1-yl)pyridin-2-yl)-5,6-dihydro-4H-1,2,4-oxadiazine]
2110 nM	COc1nc(C2=NOCC(c3cn(C)c4ncccc34)N2)ccc1-n1cnc(C)c1 (single isomer, unassigned; (-)) [Example 195A, (−)-3-(6-methoxy-5-(4-methyl-1H-imidazol-1-yl)pyridin-2-yl)-5-(1-methyl-1H-pyrrolo [2,3-b]pyridin-3-yl)-5,6-dihydro-4H-1,2,4-oxadiazine]
220 nM	COc1nc(C2=NOCC(c3cn(C(C)C)c4cccc(F)c34)N2)ccc1-n1cnc(C)c1 (single isomer, unassigned; (-)) [Example 196B, (−)-5-(4-fluoro-1-isopropyl-1H-indol-3-yl)-3-(6-methoxy-5-(4-methyl-1H-imidazol-1-yl)pyridin-2-yl)-5,6-dihydro-4H-1,2,4-oxadiazine]
90.5 nM	COc1nc(C2=NOCC(c3cn(C)c4cc(C(F)(F)F)ccc34)N2)ccc1-n1cnc(C)c1 (single isomer, unassigned; (-)) [Example 197B, (−)-3-(6-methoxy-5-(4-methyl-1H-imidazol-1-yl)pyridin-2-yl)-5-(1-methyl-6-(trifluoromethyl)-1H-indol-3-yl)-5,6-dihydro-4H-1,2,4-oxadiazine]
1290 nM	COc1nc(C2=NOCC(c3cn(C)c4ccccc34)N2C)ccc1-n1cnc(C)c1 (single isomer, unassigned; (-)) [Example 200B, (−)-3-(6-methoxy-5-(4-methyl-1H-imidazol-1-yl)pyridin-2-yl)-4-methyl-5-(1-methyl-1H-indol-3-yl)-5,6-dihydro-4H-1,2,4-oxadiazine]
2320 nM	COc1nc(C2=NOCC(c3nc4ccccc4o3)N2)ccc1-n1cnc(C)c1 (single isomer, unassigned; (-)) [Example 203A, (−)-2-(3-(6-methoxy-5-(4-methyl-1H-imidazol-1-yl)pyridin-2-yl)-5,6-dihydro-4H-1,2,4-oxadiazin-5-yl)benzo[d]oxazole]
1730 nM	COc1nc(C2=NOCC(c3cc4ccccc4n3C)N2)ccc1-n1cnc(C)c1 (single isomer, unassigned; (-)) [Example 205A, (−)-3-(6-methoxy-5-(4-methyl-1H-imidazol-1-yl)pyridin-2-yl)-5-(1-methyl-1H-indol-2-yl)-5,6-dihydro-4H-1,2,4-oxadiazine]
800 nM	COc1nc(C2=NOCC(c3cn(C)c4ncc(C(F)(F)F)cc34)N2)ccc1-n1cnc(C)c1 (single isomer, unassigned; (-)) [Example 206A, (−)-3-(6-methoxy-5-(4-methyl-1H-imidazol-1-yl)pyridin-2-yl)-5-(1-methyl-5-(trifluoromethyl)-1H-pyrrolo [2,3-b]pyridin-3-yl)-5,6-dihydro-4H-1,2,4-oxadiazine]
> 3000 nM	COc1nc(C2=NOCC(c3nc4ccccc4s3)N2)ccc1-n1cnc(C)c1 (single isomer, unassigned; (-)) [Example 208A, (−)-5-(benzo[d]thiazol-2-yl)-3-(6-methoxy-5-(4-methyl-1H-imidazol-1-yl)pyridin-2-yl)-5,6-dihydro-4H-1,2,4-oxadiazine]
> 3000 nM	COc1cc(C2=NOCC(c3nc4cccc(C)c4o3)N2C)ccc1-n1cnc(C)c1 (single isomer, unassigned; (-)) [Example 212B, (−)-2-(3-(3-methoxy-4-(4-methyl-1H-imidazol-1-yl)phenyl)-4-methyl-5,6-dihydro-4H-1,2,4-oxadiazin-5-yl)-7-methylbenzo[d]oxazole]
> 3000 nM	COc1nc(C2=NOCC(c3cccc(S(C)(=O)=O)c3)N2)ccc1-n1cnc(C)c1 (single isomer, unassigned; (-)) [Example 214A, (−)-3-(6-methoxy-5-(4-methyl-1H-imidazol-1-yl)pyridin-2-yl)-5-(3-(methylsulfonyl)phenyl)-5,6-dihydro-4H-1,2,4-oxadiazine]
